Assay results as given in US10294202B2, “Pyrrolidinones as herbicides” (FMC Corporation, priority 2013, dated 2019).

Assays:
crabgrass, large = assay: Test A pre-/postemergence herbicide test; format: in vivo, Digitaria sanguinalis; conditions: 1000 g ai/ha
In short: (§1)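 Seeds sown in loam soil/sand blend received a preemergence directed soil spray of test chemical in non-phytotoxic solvent with surfactant; postemergence plants (2–10 cm, one- to two-leaf stage) were sprayed with the same formulation. After about 10 days in greenhouse, injury was rated visually versus untreated controls, 0 (no effect) to 100 (complete control).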

sedge, umbrella = assay: Test C flooded paddy test; format: in vivo, Cyperus difformis; conditions: Flood
In short: (§2)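 Ratings reflect visual comparison with controls on a 0–100 scale, where 100 is complete control. Compound is dosed into standing paddy water 3 cm deep over 2-leaf-stage plants, kept in the greenhouse 13 to 15 days.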

rice = assay: Test C flooded paddy test; format: in vivo, Oryza sativa; conditions: Flood
In short: as §2

barnyardgrass [1] = assay: Test C flooded paddy test; format: in vivo, Echinochloa crus-galli; conditions: Flood
Description: (§3) Plant species in the flooded paddy test consisted of rice (Oryza sativa), sedge, umbrella (small-flower umbrella sedge, Cyperus difformis), ducksalad (Heteranthera limosa), and barnyardgrass (Echinochloa crus-galli) grown to the 2-leaf stage for testing. At time of treatment, test pots were flooded to 3 cm above the soil surface, treated by application of test compounds directly to the paddy water, and then maintained at that water depth for the duration of the test. Treated plants and controls were maintained in a greenhouse for 13 to 15 days, after which time all species were compared to controls and visually evaluated. Plant response ratings, summarized in Table C, are based on a scale of 0 to 100 where 0 is no effect and 100 is complete control. A dash (-) response means no test result.

velvetleaf = assay: Test A pre-/postemergence herbicide test; format: in vivo, Abutilon theophrasti; conditions: 1000 g ai/ha
In short: as §1

wheat = assay: Test A pre-/postemergence herbicide test; format: in vivo, Triticum aestivum; conditions: 1000 g ai/ha
In short: as §1

corn = assay: Test A pre-/postemergence herbicide test; format: in vivo, Zea mays; conditions: 1000 g ai/ha
In short: as §1

pigweed = assay: Test A pre-/postemergence herbicide test; format: in vivo, Amaranthus retroflexus; conditions: 1000 g ai/ha
In short: as §1

giant foxtail = assay: Test A pre-/postemergence herbicide test; format: in vivo, Setaria faberii; conditions: 1000 g ai/ha
In short: as §1

barnyardgrass [2] = assay: Test A pre-/postemergence herbicide test; format: in vivo, Echinochloa crus-galli; conditions: 1000 g ai/ha
In short: as §1

ducksalad = assay: Test C flooded paddy test; format: in vivo, Heteranthera limosa; conditions: Flood
Description: as §3

morningglory = assay: Test A pre-/postemergence herbicide test; format: in vivo, Ipomoea spp.; conditions: 1000 g ai/ha
In short: as §1

[3] = Postemergence, 0 to 100 scale (0 no effect, 100 complete control)
[4] = Preemergence, visual rating on 0 to 100 scale (0 no effect, 100 complete control), approx. 10 days
[5] = 31 g ai/ha, scale of 0 to 100 where 0 is no effect and 100 is complete control, 13 to 15 days
[6] = 62 g ai/ha, scale of 0 to 100 where 0 is no effect and 100 is complete control, 13 to 15 days
[7] = 125 g ai/ha, scale of 0 to 100 where 0 is no effect and 100 is complete control, 13 to 15 days

SMILES	Plant response rating, Crabgrass, Large (crabgrass, large; [3])	Plant response rating, Crabgrass, Large (crabgrass, large; [4])	Plant response rating, Sedge, Umbrella (sedge, umbrella; [6])	Plant response rating, Sedge, Umbrella (sedge, umbrella; 250 g ai/ha, scale 0 to 100)	Plant response rating, Rice (rice; [6])	Plant response rating, Rice (rice; 250 g ai/ha, scale 0 to 100)	Plant response rating, Barnyardgrass (barnyardgrass [1]; [6])	Plant response rating, Barnyardgrass (barnyardgrass [1]; 250 g ai/ha, scale 0 to 100)	Plant response rating, Velvetleaf (velvetleaf; [3])	Plant response rating, Velvetleaf (velvetleaf; [4])	Plant response rating, Wheat (wheat; [3])	Plant response rating, Wheat (wheat; [4])	Plant response rating, Corn (corn; [3])	Plant response rating, Corn (corn; [4])	Plant response rating, Pigweed (pigweed; [4])	Plant response rating, Foxtail, Giant (giant foxtail; [3])	Plant response rating, Foxtail, Giant (giant foxtail; [4])	Plant response rating, Barnyardgrass (barnyardgrass [2]; [3])	Plant response rating, Barnyardgrass (barnyardgrass [2]; [4])	Plant response rating, Ducksalad (ducksalad; [6])	further results
Cc1ccccc1NC(=O)C1C(=O)NCC1c1ccc(F)c(F)c1 (racemic) [Compound 19]	90	90	0	0	0	0	0	0	10	0	30	0	0	0	0	80	90	90	90	0	Plant response rating, Sedge, Umbrella (sedge, umbrella; [5]): 0; Plant response rating, Sedge, Umbrella (sedge, umbrella; [7]): 0; Plant response rating, Rice (rice; [5]): 0; Plant response rating, Rice (rice; [7]): 0; Plant response rating, Barnyardgrass (barnyardgrass [1]; [5]): 0; Plant response rating, Barnyardgrass (barnyardgrass [1]; [7]): 0; Plant response rating, Pigweed (pigweed; [3]): 0; Plant response rating, Ducksalad (ducksalad; [5]): 0; Plant response rating, Ducksalad (ducksalad; [7]): 0; Plant response rating, Ducksalad (ducksalad; 250 g ai/ha, scale 0 to 100): 0; Plant response rating, Morningglory (morningglory; [3]): 0; Plant response rating, Morningglory (morningglory; [4]): 0
O=C1NCC(c2ccc(Cl)c(Cl)c2)C1C(=O)Nc1cccc(F)c1F (racemic) [Compound 25]	80	90	0	0	0	0	0	0	10	0	0	0	0	0	0	90	90	80	80	0	Plant response rating, Pigweed (pigweed; [3]): 0; Plant response rating, Ducksalad (ducksalad; 250 g ai/ha, scale 0 to 100): 60; Plant response rating, Morningglory (morningglory; [3]): 10; Plant response rating, Morningglory (morningglory; [4]): 0
CS(=O)(=O)c1ccccc1NC(=O)C1C(=O)NCC1c1ccc(F)c(F)c1 (racemic) [Compound 21]	80	90	0	0	0	0	0	0	60	50	30	20	0	0	40	80	90	90	90	0	Plant response rating, Sedge, Umbrella (sedge, umbrella; [5]): 0; Plant response rating, Sedge, Umbrella (sedge, umbrella; [7]): 0; Plant response rating, Rice (rice; [5]): 0; Plant response rating, Rice (rice; [7]): 0; Plant response rating, Barnyardgrass (barnyardgrass [1]; [5]): 0; Plant response rating, Barnyardgrass (barnyardgrass [1]; [7]): 0; Plant response rating, Ducksalad (ducksalad; [5]): 0; Plant response rating, Ducksalad (ducksalad; [7]): 50; Plant response rating, Ducksalad (ducksalad; 250 g ai/ha, scale 0 to 100): 85; Plant response rating, Morningglory (morningglory; [3]): 0; Plant response rating, Morningglory (morningglory; [4]): 40
